Results published in paper PMC4161151 (Journal of Medicinal Chemistry, 2014).
Converted amounts (≈) assume the structure as drawn. “And” between values parts separate entries of the source, which are not always exact repeats. Equal values may be shown once. Read-outs that look alike come from different tables or passages of the source.

Columns and labels:
κ opioid receptor [1] = target: T1, κ opioid receptor (Homo sapiens, UniProt P41145); conditions: for Ke κ, U69,593: cloned human κ receptor, mean (SE), at least three independent experiments; for μ/κ: selectivity for κ relative to μ; for μ/κ / δ/κ: ratio of Ke values; for δ/κ: selectivity for κ relative to δ
δ opioid receptor [2] = target: T2, δ opioid receptor (Homo sapiens, UniProt P41143); conditions: for behaviour at the δ receptor: δ opioid receptor [35S]GTPγS assay, result in words; for Ke δ, DPDPE: cloned human δ receptor
μ opioid receptor [3] = target: T3, μ opioid receptor (Homo sapiens, UniProt P35372); conditions: cloned human μ receptor; mean (SE), at least three independent experiments
[4] = Kinetic solubility, 96-well plate assay; assay type: physicochemical; conditions: for solubility at 90 min: phosphate buffer
μ opioid receptor [5] = target: T3, μ opioid receptor; experiment: biochemical
κ opioid receptor [6] = target: T1, κ opioid receptor; experiment: biochemical
MDCK-MDR1 cells = experiment: MDCK-MDR1 permeability; conditions: percent transported from the optical to basal side
δ opioid receptor [7] = target: T2, δ opioid receptor; experiment: biochemical
[8] = Parallel artificial membrane permeability assay; assay type: in vitro ADME; conditions: 4 h; for PAMPA pH 5.5, percent transported: pH 5.5, 10 μM; for PAMPA pH 7.4, percent transported: pH 7.4, 10 μM
hERG channel = hERG channel (Homo sapiens, UniProt Q12809); experiment: hERG [3H]astemizole radioligand displacement assay
δ opioid receptor [9] = conditions: read-out: Ki δ; cited from earlier work
[10] = mean (SE), at least three independent experiments

T1 sequence (P41145 whole entry): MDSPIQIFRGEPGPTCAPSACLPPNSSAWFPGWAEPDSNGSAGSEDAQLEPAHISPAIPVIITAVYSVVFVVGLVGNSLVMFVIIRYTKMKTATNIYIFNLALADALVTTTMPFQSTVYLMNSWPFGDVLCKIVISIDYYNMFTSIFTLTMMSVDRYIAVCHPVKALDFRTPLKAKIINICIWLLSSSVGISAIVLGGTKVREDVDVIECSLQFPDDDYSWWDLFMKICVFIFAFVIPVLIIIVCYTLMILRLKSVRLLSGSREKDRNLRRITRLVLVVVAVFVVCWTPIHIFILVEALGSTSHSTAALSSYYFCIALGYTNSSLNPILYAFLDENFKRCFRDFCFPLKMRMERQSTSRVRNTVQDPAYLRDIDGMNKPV
T3 sequence (P35372 whole entry): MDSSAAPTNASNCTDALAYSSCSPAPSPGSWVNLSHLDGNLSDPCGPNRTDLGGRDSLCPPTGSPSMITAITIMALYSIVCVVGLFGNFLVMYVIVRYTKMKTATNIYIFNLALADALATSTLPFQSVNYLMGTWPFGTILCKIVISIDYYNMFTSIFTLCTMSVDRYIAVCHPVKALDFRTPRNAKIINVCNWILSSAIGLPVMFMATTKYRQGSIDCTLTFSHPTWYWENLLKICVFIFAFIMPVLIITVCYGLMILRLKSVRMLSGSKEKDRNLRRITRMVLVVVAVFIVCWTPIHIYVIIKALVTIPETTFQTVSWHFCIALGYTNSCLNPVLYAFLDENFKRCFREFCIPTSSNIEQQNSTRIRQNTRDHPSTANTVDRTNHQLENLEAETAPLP
T2 sequence (P41143 whole entry): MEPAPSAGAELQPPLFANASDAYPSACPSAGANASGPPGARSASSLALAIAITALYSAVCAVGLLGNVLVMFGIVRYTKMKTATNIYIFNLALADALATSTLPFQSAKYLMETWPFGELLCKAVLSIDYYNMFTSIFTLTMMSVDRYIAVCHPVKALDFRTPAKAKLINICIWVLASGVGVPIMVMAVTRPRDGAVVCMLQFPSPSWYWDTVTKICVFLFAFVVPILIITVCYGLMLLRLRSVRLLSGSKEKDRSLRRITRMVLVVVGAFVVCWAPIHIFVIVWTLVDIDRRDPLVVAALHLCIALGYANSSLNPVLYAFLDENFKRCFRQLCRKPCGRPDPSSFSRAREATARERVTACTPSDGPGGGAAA
Chain of hERG channel (Q12809 whole entry): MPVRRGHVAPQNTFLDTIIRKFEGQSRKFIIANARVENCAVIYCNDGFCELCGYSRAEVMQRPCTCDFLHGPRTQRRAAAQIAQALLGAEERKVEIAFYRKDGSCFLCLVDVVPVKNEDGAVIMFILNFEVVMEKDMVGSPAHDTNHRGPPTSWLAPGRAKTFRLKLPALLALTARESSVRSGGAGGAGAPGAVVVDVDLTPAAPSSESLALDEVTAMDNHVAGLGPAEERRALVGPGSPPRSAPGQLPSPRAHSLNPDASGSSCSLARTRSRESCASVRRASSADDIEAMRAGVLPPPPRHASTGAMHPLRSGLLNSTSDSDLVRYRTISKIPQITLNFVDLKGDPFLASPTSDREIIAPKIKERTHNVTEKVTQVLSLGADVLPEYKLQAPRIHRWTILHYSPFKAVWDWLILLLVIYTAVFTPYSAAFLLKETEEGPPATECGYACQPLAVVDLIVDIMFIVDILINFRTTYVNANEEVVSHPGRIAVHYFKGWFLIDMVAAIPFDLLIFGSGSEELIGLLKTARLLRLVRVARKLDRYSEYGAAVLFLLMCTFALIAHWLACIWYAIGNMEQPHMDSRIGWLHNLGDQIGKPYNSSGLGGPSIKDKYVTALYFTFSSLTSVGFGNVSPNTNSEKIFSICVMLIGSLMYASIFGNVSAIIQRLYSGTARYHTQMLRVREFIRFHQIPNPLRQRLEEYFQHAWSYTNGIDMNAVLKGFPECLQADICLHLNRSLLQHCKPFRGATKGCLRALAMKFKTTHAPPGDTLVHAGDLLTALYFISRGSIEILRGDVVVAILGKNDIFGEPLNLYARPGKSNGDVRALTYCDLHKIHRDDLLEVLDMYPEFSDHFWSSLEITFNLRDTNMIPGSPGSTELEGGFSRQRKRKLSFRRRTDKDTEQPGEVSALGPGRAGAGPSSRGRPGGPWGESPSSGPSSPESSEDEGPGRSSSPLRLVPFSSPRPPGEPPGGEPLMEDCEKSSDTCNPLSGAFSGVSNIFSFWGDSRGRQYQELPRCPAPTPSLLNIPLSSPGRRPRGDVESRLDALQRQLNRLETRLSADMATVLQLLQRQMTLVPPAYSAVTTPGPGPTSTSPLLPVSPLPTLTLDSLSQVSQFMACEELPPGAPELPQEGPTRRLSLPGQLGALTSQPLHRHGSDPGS

| Molecule | Ke κ, U69,593 (κ opioid receptor [1]) | μ/κ (κ opioid receptor [1]) | Ke μ, DAMGO (μ opioid receptor [3]) | MDCK, percent transported (MDCK-MDR1 cells) | δ/κ (κ opioid receptor [1]) | plasma stability (% of parent) (Plasma stability) | S9 stability (% of parent) (S9 stability) | Ke δ, DPDPE (δ opioid receptor [2]; [10]) | also measured |
| --- | --- | --- | --- | --- | --- | --- | --- | --- | --- |
| (3R)-7-Fluoro-N-[(1S)-1-{[(3R,4R)-4-(3-Fluorophenyl)-3,4-dimethylpiperidin-1-yl]methyl}-2-methylpropyl]-1,2,3,4-tetrahydroisoquinoline-3-carboxamide [Compound 12] | 2.22 nM and 2.22 ± 0.47 nM | 162 | 360 ± 63 nM |  |  |  |  |  | behaviour at the δ receptor (δ opioid receptor [2]): weak inverse agonist |
| CC(C)[C@@H](CN1CC[C@@](C)(c2cccc(C(N)=O)c2)[C@@H](C)C1)NC(=O)[C@H]1Cc2ccc(C(N)=O)cc2CN1 [Compound 14, (3R)-N^3-[(1S)-1-{[(3R,4R)-4-(3-Carbamoylphenyl)-3,4-dimethylpiperidin-1-yl]methyl}-2-methylpropyl]-1,2,3,4-tetrahydroisoquinoline-3,7-dicarboxamide] |  | 230 |  | 14% | 4700 | 55.3 % of parent | 90.9 % of parent |  | solubility at pH 7.4 ([4]; pH 7.4): > 20%; solubility at 90 min ([4]; pH 3): 100 µM (≈ 52 µg/mL); solubility at 90 min ([4]; pH 7.4): 81 µM (≈ 42.1 µg/mL); Kb (μ opioid receptor [5]): 25.3 ± 7.89 nM; Kb (κ opioid receptor [6]): 0.11 ± 0.02 nM; Kb (δ opioid receptor [7]): 517 ± 52 nM; PAMPA pH 5.5, percent transported [8]: 36.4%; PAMPA pH 7.4, percent transported [8]: 32.2%; Ki (hERG channel): > 10000 nM |
| CC(C)[C@@H](CN1CC[C@@](C)(c2cccc(O)c2)[C@@H](C)C1)NC(=O)[C@H]1Cc2ccc(O)cc2CN1 [JDTic, (3R)-1,2,3,4-tetrahydro-7-hydroxy-N-[(1S)-1-[[(3R,4R)-4-(3-hydroxyphenyl)-3,4-dimethyl-1-piperidinyl]methyl]-2-methylpropyl]-3-isoquinolinecarboxamide, reference compound] |  |  |  | 11% |  | 97 % of parent | 76 % of parent |  |  |
| C[C@H]1CN(CC[C@H](O)C2CCCCC2)CC[C@@]1(C)c1cccc(O)c1 [LY255582] |  |  |  |  |  |  |  |  | Ki (δ opioid receptor [9]): 4.8 nM |
| CC(C)[C@@H](CN1CC[C@@](C)(c2cccc(O)c2)[C@@H](C)C1)NC(=O)[C@H]1Cc2ccc(C(N)=O)cc2CN1 [Compound 13, (3R)-N^3-[(1S)-1-{[(3R,4R)-4-(3-Hydroxyphenyl)-3,4-dimethylpiperidin-1-yl]methyl}-2-methylpropyl]-1,2,3,4-tetrahydroisoquinoline-3,7-dicarboxamide] |  | 355 |  | 17% | 6550 | 84.7 % of parent | 91.5 % of parent |  | solubility at pH 7.4 ([4]; pH 7.4): > 20%; solubility at 90 min ([4]; pH 3): 77 µM (≈ 37.9 µg/mL); solubility at 90 min ([4]; pH 7.4): 38 µM (≈ 18.7 µg/mL); Kb (μ opioid receptor [5]): 7.09 ± 2.58 nM; Kb (κ opioid receptor [6]): 0.02 ± 0.005 nM; Kb (δ opioid receptor [7]): 131 ± 23 nM; PAMPA pH 5.5, percent transported [8]: 39.1%; PAMPA pH 7.4, percent transported [8]: 28.3%; Ki (hERG channel): > 10000 nM |
| CC(C)[C@@H](CN1CC[C@@](C)(c2ccccc2)[C@@H](C)C1)NC(=O)[C@H]1Cc2ccc(O)cc2CN1 [Compound 4, (3R)-N-[(1S)-1-{[(3R,4R)-3,4-Dimethyl-4-phenylpiperidin-1-yl]methyl}-2-methylpropyl]-7-hydroxy-1,2,3,4-tetrahydroisoquinoline-3-carboxamide] |  |  |  | 27% |  | 67.0 % of parent | 82.0 % of parent |  |  |
| (3R)-N-[(1S)-1-{[(3R,4R)-4-(3-Bromophenyl)-3,4-dimethylpiperidin-1-yl]methyl}-2-methylpropyl]-7-hydroxy-1,2,3,4-tetrahydroisoquinoline-3-carboxamide [Compound 7] | 0.268 nM and 0.268 ± 0.01 nM | 25 | 6.56 ± 0.44 nM |  | 2200 |  |  | 594 ± 160 nM |  |
| (3R)-N-[(1S)-1-{[(3R,4R)-4-(3-Hydroxyphenyl)-3,4-dimethylpiperidin-1-yl]methyl}-2-methylpropyl]-7-1,2,3,4-tetrahydroisoquinoline-3-carboxamide [Compound 9] | 4.3 ± 2 nM | 3.7 | 16 ± 5 nM |  | 37 |  |  | 158 nM and 158 ± 49 nM |  |
| (3R)-N-[(1S)-1-{[(3R,4R)-4-(3-Aminophenyl)-3,4-dimethylpiperidin-1-yl]methyl}-2-methylpropyl]-7-hydroxy-1,2,3,4-tetrahydroisoquinoline-3-carboxamide [Compound 8] | 0.25 ± 0.09 nM | 42 | 10.6 nM and 10.6 ± 3.6 nM |  | 7600 |  |  | 1899 ± 657 nM |  |
| (3R)-N-[(1S)-1-{[(3R,4R)-4-(3-Chlorophenyl)-3,4-dimethylpiperidin-1-yl]methyl}-2-methylpropyl]-7-hydroxy-1,2,3,4-tetrahydroisoquinoline-3-carboxamide [Compound 6] | 0.039 ± 0.001 nM | 175 | 6.81 ± 2.6 nM |  | 17600 |  |  | 685 ± 99 nM |  |
| (3R)-N-[(1S)-1-{[(3R,4R)-3,4-Dimethyl-4-phenylpiperidin-1-yl]methyl}-2-methylpropyl]-1,2,3,4-tetrahydroisoquinoline-3-carboxamide [Compound 11] | 16 ± 7 nM | 45 | 724 ± 146 nM |  | >188 |  |  |  | Ke δ, DPDPE (δ opioid receptor [2]): >3000 nM |
| (3R)-7-Fluoro-N-[(1S)-1-{[(3R,4R)-4-(3-Hydroxyphenyl)-3,4-dimethylpiperidine-1-yl]methyl}-2-methylpropyl]-1,2,3,4-tetrahydroisoquinoline-3-carboxamide [Compound 10] | 2.20 ± 0.47 nM | 3.5 | 7.7 ± 0.9 nM |  |  |  |  |  | behaviour at the δ receptor (δ opioid receptor [2]): weak inverse agonist |
| (3R)-N^3-[(1S)-1-{[(3R,4R)-3,4-Dimethyl-4-phenylpiperidin-1-yl]methyl}-2-methylpropyl]-1,2,3,4-tetrahydroisoquinoline-3,7-dicarboxamide [Compound 15] | 0.041 ± 0.006 nM | 163 | 6.70 ± 2.1 nM |  | 2700 |  |  | 111 ± 29 nM |  |
